From PMC9466626, “Discovery of new 1H-pyrazolo[3,4-d]pyrimidine derivatives as anticancer agents targeting EGFR^WT and EGFR^T790M” (Journal of Enzyme Inhibition and Medicinal Chemistry, 2022)
Read-outs that look alike come from different tables or passages of the source.

Assays:
A549 = assay: In vitro anti-proliferative MTT assay, A549; assay type: cell-based, human; conditions: for IC50: Homo sapiens; for HillSlope (best-fit value), A549 / LogIC50 (best-fit value), A549: supplement IC50 graph
Procedure: These two cell lines were selected in this test due to the overexpression of EGFR in human lung and colon cancer cell lines[48]^,[49]. The tested cells were reported to have a high expression level of EGFR. […]
(§1) 1.1. In vitro antiproliferative activities
The in vitro antiproliferative activities of all the synthesized compounds against two human […]
evaluated quantitatively as described in the literature, using MTT assay protocol . two […]
proliferative activity was assessed quantitatively as follows.
(§2) Human cancer cell lines were dropped in 96 -well plates at a density of 3-8 × 10^3 cells/well.
Next, the wells were incubated for 12 h in a 5% CO 2 incubator at 37 °C. Then, for each well, the growth medium was exchanged with 0.1 ml of fresh medium containing graded concentrations of the test compounds to be or equal DMSO and incubated for two days. Then 10 μl MTT solution ([…]) was added to each well, and the cells were incubated for additional 4 h. The crystals of MTT-formazan were dissolved in 100 μl of DMSO; the absorbance of each well was measured at 490 nm using an automatic ELISA reader system (TECAN, CHE). The IC 50 values were calculated using the nonlinear regression fitting models (Graph Pad, Prism Version 5). The data represented the mean of three independent experiments in triplicate and were expressed as means ± SD. The […]
(§3) The results were expressed as growth inhibitory concentration (IC50) values and […]

HCT-116 = assay: In vitro anti-proliferative MTT assay, HCT-116; assay type: cell-based, human; conditions: for IC50: Homo sapiens, HCT-116, mean of three experiments, read-out: In vitro cytotoxicity IC50, HCT-116; for IC50 / anti-proliferative activity against HCT-116 in words: MTT; for HillSlope (best-fit value), HCT-116 / LogIC50 (best-fit value), HCT-116: supplement IC50 graph
Procedure: The cytotoxic activities of the synthesised compounds were assessed against two human cancer cell lines (lung, A549) and (colon HCT-116) using an MTT assay. These two cell lines were selected in this test due to the overexpression of EGFR in human lung and colon cancer cell lines[48]^,[49]. The tested cells were reported to have a high expression level of EGFR.
In vitro cytotoxicity was carried out for the synthesised compounds against A549, HCT-116, and WI-38 cell lines using the MTT assay protocol[52–55] as described in Supplementary data. […]
as §1
The in vitro antiproliferative activities of all the synthesized compounds against two human tumor cell lines namely, (lung, A549) and (colon HCT-116) and one normal cell line (WI-38) were evaluated quantitatively as described in the literature, using MTT assay protocol . two commercially available drugs (erlotinib) were used in this test as positive controls. The anti-proliferative activity was assessed quantitatively as follows.
as §2
Next, the wells were incubated for 12 h in a 5% CO 2 incubator at 37 °C. Then, for each well, the growth medium was exchanged with 0.1 ml of fresh medium containing graded concentrations of the test compounds to be or equal DMSO and incubated for two days. Then 10 μl MTT solution ([…]) was added to each well, and the cells were incubated for additional 4 h. The crystals of MTT-formazan were dissolved in 100 μl of DMSO; the absorbance of each well was measured at 490 nm using an automatic ELISA reader system (TECAN, CHE). The IC 50 values were calculated using the nonlinear regression fitting models (Graph Pad, Prism Version 5). The data represented the mean of three independent experiments in triplicate and were expressed as means ± SD. The IC50 value was defined as the concentration at which 50% of the cells could survive.
as §3

EGFR^WT = target: T1, EGFR^WT (Homo sapiens, UniProt P00533); assay: EGFR^WT kinase inhibitory assay (HTRF); assay type: biochemical
T1 construct: purchased Sigma
T1 sequence (P00533 25-1210): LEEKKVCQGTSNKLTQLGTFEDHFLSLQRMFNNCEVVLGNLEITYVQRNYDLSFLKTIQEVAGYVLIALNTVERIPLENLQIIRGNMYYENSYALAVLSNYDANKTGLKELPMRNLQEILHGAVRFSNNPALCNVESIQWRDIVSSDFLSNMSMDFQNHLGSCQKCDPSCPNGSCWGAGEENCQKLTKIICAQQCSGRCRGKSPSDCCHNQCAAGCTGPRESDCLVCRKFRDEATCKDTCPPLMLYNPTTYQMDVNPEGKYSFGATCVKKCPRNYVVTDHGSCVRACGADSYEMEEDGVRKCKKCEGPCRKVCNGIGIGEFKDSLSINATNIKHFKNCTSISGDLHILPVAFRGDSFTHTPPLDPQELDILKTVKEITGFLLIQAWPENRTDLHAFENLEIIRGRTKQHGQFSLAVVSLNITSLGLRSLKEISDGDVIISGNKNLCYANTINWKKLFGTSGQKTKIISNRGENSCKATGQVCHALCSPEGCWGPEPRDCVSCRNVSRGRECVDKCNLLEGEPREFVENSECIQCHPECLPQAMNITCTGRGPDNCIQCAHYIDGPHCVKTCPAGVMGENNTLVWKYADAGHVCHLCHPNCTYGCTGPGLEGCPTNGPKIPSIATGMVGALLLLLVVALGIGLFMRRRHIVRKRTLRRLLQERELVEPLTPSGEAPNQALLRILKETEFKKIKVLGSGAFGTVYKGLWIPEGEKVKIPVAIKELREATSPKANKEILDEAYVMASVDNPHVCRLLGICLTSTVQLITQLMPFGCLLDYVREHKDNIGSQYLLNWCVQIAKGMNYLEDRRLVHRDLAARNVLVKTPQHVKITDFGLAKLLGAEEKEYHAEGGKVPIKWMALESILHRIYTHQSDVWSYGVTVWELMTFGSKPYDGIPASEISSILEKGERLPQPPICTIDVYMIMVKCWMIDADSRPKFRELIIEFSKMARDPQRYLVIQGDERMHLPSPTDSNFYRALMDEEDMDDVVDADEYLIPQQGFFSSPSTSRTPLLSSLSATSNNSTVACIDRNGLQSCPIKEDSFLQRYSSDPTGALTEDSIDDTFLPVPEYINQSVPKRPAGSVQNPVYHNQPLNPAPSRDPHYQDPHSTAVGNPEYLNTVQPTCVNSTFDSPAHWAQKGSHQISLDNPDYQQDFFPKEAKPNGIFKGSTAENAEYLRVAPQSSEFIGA
Procedure: In vitro EGFR inhibitory activity was assessed using a Homogeneous time-resolved fluorescence (HTRF) assay[56] as described in Supplementary data.
4.1.1. EGFRWT and EGFRT790M kinase inhibitory assay […]
against four cancer cell lines were further examined for their inhibitory activities against both […]
Homogeneous time resolved fluorescence (HTRF) assay was applied in this test. EGFRWT, EGFRT790M (Sigma). firstly, the EGFRWT and/or EGFRT790M and their substrates were incubated with the tested compounds in enzymatic buffer for 5 min. […]
the enzymatic reaction. The assay was conducted for 30 min at room temperature. The reaction was stopped by addition of detection reagents which contain EDTA. The detection step continued […]
experiments were performed for each concentration. […]

WI-38 = assay: In vitro cytotoxicity against normal cells (MTT), WI-38; conditions: supplement graph
Procedure: (§4) Next, the wells were incubated for 12 h in a 5% CO 2 incubator at 37 °C. Then, for each well, the growth medium was exchanged with 0.1 ml of fresh medium containing graded concentrations of the test compounds to be or equal DMSO and incubated for two days. Then 10 μl MTT solution (5 μg/ml) was added to each well, and the cells were incubated for additional 4 h. The crystals of MTT-formazan were dissolved in 100 μl of DMSO; the absorbance of each well was measured at 490 nm using an automatic ELISA reader system (TECAN, CHE). The IC 50 values were calculated using the nonlinear regression fitting models (Graph Pad, Prism Version 5). The data represented the mean of three independent experiments in triplicate and were expressed as means ± SD.

in vitro = conditions: human, WI-38 normal cells
Procedure: as §4

[1] = A549, MTT, mean of three experiments, read-out: In vitro cytotoxicity IC50, A549
[2] = HTRF, mean of three experiments, read-out: EGFR^WT IC50
[3] = supplement graph, axis Log (nM)
[4] = supplement graph, axis Log (nM), read-out: IC50 (best-fit value of graph), EGFR inhibition

IC50 (EGFR^WT; [2])	HillSlope (best-fit value), EGFR inhibition (EGFR^WT; supplement graph)	LogIC50 (best-fit value), EGFR inhibition (EGFR^WT; [3])	IC50 (EGFR^WT; [4])	IC50 at 2 days (in vitro)	IC50 (A549; A549, read-out: IC50 (best-fit value of graph), A549)	SMILES	IC50 (A549; [1])	HillSlope (best-fit value), A549 (A549)	LogIC50 (best-fit value), A549 (A549)	IC50 (HCT-116)	anti-proliferative activity against HCT-116 in words (HCT-116)	HillSlope (best-fit value), HCT-116 (HCT-116)	LogIC50 (best-fit value), HCT-116 (HCT-116)	HillSlope (best-fit value), WI-38 (WI-38)	LogIC50 (best-fit value), WI-38 (WI-38)
–	–	–	–	–	–	CCNc1nc(Nc2ccccc2)nc2c1cnn2-c1ccccc1 [Compound 7a, N4-Ethyl-N6,1-diphenyl-1H-pyrazolo[3,4-d]pyrimidine-4,6-diamine]	64.4 µM	-0.4567	1.809	29.6 µM	moderate	-0.4339	1.472	–	–
–	–	–	–	–	–	CCCNc1nc(Nc2ccccc2)nc2c1cnn2-c1ccccc1 [Compound 7b, N4-Propyl-N6,1-diphenyl-1H-pyrazolo[3,4-d]pyrimidine-4,6-diamine]	67.4 µM	-0.4700	1.829	31.5 µM	moderate	-0.4549	1.498	–	–
26 nM	-0.3385	1.415	26 nM	–	–	c1ccc(Nc2nc(Nc3ccccc3)c3cnn(-c4ccccc4)c3n2)cc1 [Compound 8, N4,N6,1-Triphenyl-1H-pyrazolo[3,4-d]pyrimidine-4,6-diamine]	16.8 µM	-0.3605	1.224	24.2 µM	–	-0.4231	1.383	–	–
–	–	–	–	–	–	c1ccc(Nc2nc(NC3CCCCC3)c3cnn(-c4ccccc4)c3n2)cc1 [Compound 9, N4-Cyclohexyl-N6,1-diphenyl-1H-pyrazolo[3,4-d]pyrimidine-4,6-diamine]	29.1 µM	-0.3708	1.463	39.4 µM	–	-0.3946	1.595	–	–
23 nM	-0.3619	1.366	23.2 nM	–	–	NNc1nc(Nc2ccccc2)nc2c1cnn2-c1ccccc1 [Compound 10, 4-Hydrazinyl-N,1-diphenyl-1H-pyrazolo[3,4-d]pyrimidin-6-amine]	15.7 µM	-0.3765	1.195	18.8 µM	–	-0.3276	1.274	–	–
–	–	–	–	–	–	COc1ccc(C=NNc2nc(Nc3ccccc3)nc3c2cnn3-c2ccccc2)cc1 [Compound 11a, 4–(2-(4-Methoxybenzylidene)hydrazinyl)-N,1-diphenyl-1H-pyrazolo[3,4-d] pyrimidin-6-amine]	47.7 µM	-0.4514	1.678	46.2 µM	–	-0.4760	1.664	–	–
–	–	–	–	–	–	Clc1ccc(C=NNc2nc(Nc3ccccc3)nc3c2cnn3-c2ccccc2)cc1 [Compound 11b, 4–(2-(4-Chlorobenzylidene)hydrazinyl)-N,1-diphenyl-1H-pyrazolo[3,4-d]pyrimidin-6-amine]	75.7 µM	-0.3813	1.879	75.1 µM	–	-0.5652	1.876	–	–
21 nM	-0.3296	1.321	21 nM	–	–	CC(=NNc1nc(Nc2ccccc2)nc2c1cnn2-c1ccccc1)c1ccccc1 [Compound 12a, N,1-Diphenyl-4–(2-(1-phenylethylidene)hydrazinyl)-1H-pyrazolo[3,4-d]pyrimidin-6-amine]	13.7 µM	-0.3395	1.137	23.3 µM	–	-0.4063	1.368	–	–
–	–	–	–	–	–	CC(=NNc1nc(Nc2ccccc2)nc2c1cnn2-c1ccccc1)c1ccc(C)cc1 [Compound 12c, N,1-Diphenyl-4–(2-(1-(p-tolyl)ethylidene)hydrazinyl)-1H-pyrazolo [3,4-d] pyrimidin-6-amine]	28.8 µM	-0.4080	1.459	28.7 µM	moderate	-0.4467	1.458	–	–
–	–	–	–	–	–	CCNC(=S)NNc1nc(Nc2ccccc2)nc2c1cnn2-c1ccccc1 [Compound 13a, N-Ethyl-2–(1-phenyl-6-(phenylamino)-1H-pyrazolo[3,4-d]pyrimidin-4-yl) hydrazine-1-carbothioamide]	43.1 µM	-0.4011	1.635	27 µM	moderate	-0.4156	1.432	–	–
–	–	–	–	–	–	CCCNC(=S)NNc1nc(Nc2ccccc2)nc2c1cnn2-c1ccccc1 [Compound 13b, 2–(1-Phenyl-6-(phenylamino)-1H-pyrazolo[3,4-d]pyrimidin-4-yl)-N-propyl hydrazine-1-carbothioamide]	15.4 µM	-0.3921	1.186	36.4 µM	–	-0.3703	1.562	–	–
–	–	–	–	33.8 µM	6.78 µM	C#Cc1cccc(Nc2ncnc3cc(OCCOC)c(OCCOC)cc23)c1 [Erlotinib, reference compound]	6.77 µM	-0.3354	0.8309	19.2 µM	–	-0.3370	1.284	-0.4750	1.528
